Results on four compounds are retold here after patent US7678794B2, “Potentiators of glutamate receptors” (Eli Lilly and Company, priority 2004, dated 2010).

Where only a bound is given, the exact number is not on record here.

The assay deals with T1, human CysLT1 receptor (Homo sapiens, UniProt Q9Y271).
T1 construct: expressed in transfected cells; host or cells: AV12-664 (ATCC-9595)
T1 sequence (Q9Y271 1-337): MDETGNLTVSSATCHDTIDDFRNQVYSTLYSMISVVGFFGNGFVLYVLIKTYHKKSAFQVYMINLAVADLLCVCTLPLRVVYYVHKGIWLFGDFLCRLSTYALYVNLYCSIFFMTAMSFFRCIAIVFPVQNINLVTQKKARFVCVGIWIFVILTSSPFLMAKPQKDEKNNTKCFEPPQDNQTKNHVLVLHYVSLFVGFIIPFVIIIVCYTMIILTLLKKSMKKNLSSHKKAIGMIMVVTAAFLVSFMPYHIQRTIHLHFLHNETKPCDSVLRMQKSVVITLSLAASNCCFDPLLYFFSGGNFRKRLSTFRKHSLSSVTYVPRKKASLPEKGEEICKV
The assay is described as follows: Antagonism of LTD4-induced increase in intracellular calcium within a CysLT1 receptor expressing cell line (FLIPR). The format is cell-based. The settings on record: AV12-664 cells expressing human CysLT1; 6 nM LTD4; read-out: antagonism of CysLT1 receptors, IC50. The source says:
Antagonism of Cysteinyl-leukotriene D4 (LTD4)—Induced Increase in Intracellular Calcium within a Cysteinyl-Leukotriene 1 (CysLT1) Receptor Expressing Cell Line
Confluent cultures are passaged weekly. Intracellular calcium levels are monitored in the CysLT1-expressing cells with the addition of LTD4, with or without prior exposure to the compounds being tested as antagonists with a Fluorometric Imaging Plate Reader (FLIPR, Molecular Devices). The following buffer is used throughout as an assay buffer: Hanks Buffered Saline Solution without phenol red (GIBCO), with 10 mM HEPES pH 7.4. Cells that had been plated 48 hours prior at a density of 20-25,000 cells per well in a 96-well plate are loaded with a calcium-sensitive dye for 90 minutes at 25° C. Fluo-3 (2 mM in DMSO, Molecular Probes) is mixed with an equal volume of 10% pluronic acid in DMSO, and diluted to 8 μM in the buffer described above containing 10% fetal bovine serum to make the loading buffer. Following loading of the cells, the buffer is removed and replaced with assay buffer prior to drug addition and monitoring on the FLIPR for several minutes. […] Least squares curve fitting with a four-parameter equation is applied to the resulting dose-% inhibition curve to determine the resulting IC50 values.
(In general: Calcium flux is commonly read through the fluorescence of an indicator in the cells.)

By IC50 is commonly meant the concentration that inhibits the measured activity by half. As to `CCCc1c(OCc2ccc(NC(=O)Nc3cccc(C(=O)O)c3)cc2)ccc(C(C)=O)c1O` [Example 1, 3-{3-[4-(4-acetyl-3-hydroxy-2-propyl-phenoxymethyl)-phenyl]-ureido}-benzoic acid], the IC50 is under 500 nM.
The same measure for `CCCc1c(OCc2ccc(S(=O)(=O)Nc3ccccc3-c3nn[nH]n3)cc2)ccc(C(C)=O)c1O` [Example 10, 4-(4-Acetyl-3-hydroxy-2-propyl-phenoxymethyl)-N-[2-(2 H-tetrazol-5-yl)-phenyl]-benzene-sulfonamide]: under 500 nM; for `CCCc1c(OCc2cccc(S(=O)(=O)Nc3cccc(-c4nn[nH]n4)c3)c2)ccc(C(C)=O)c1O` [Example 12, 3-(4-Acetyl-3-hydroxy-2-propyl-phenoxymethyl)-N-[3-(2 H-tetrazol-5-yl)-phenyl]-benzene-sulfonamide]: under 500 nM.
The same measure for `CCCc1c(OCc2cccc(S(=O)(=O)Nc3ccccc3-c3nn[nH]n3)c2)ccc(C(C)=O)c1O` [Example 13, 3-(4-Acetyl-3-hydroxy-2-propyl-phenoxymethyl)-N-[2-(2 H-tetrazol-5-yl)-phenyl]-benzene-sulfonamide]: under 500 nM.
